Reference: patent US20210401867A1, “PHOTOSENSITIZERS AND METHOD OF TREATING CANCER USING THE SAME” (Cheng-Wen Wu, priority 2018, published 2021)

Tests used:
FaDu cells [1] = assay: colony forming assay of FaDu cells; type: cell-based, human
Procedure: In the following examples, FaDu cells are used in cell viability tests and colony forming assays. FaDu cells (ATCC HTB-43) is a human head-and-neck cell line with squamous phenotype. FaDu cells used in the following examples are cultured in DMEM medium supplemented with 10% fetal bovine serum (FBS) and 1% penicillin/streptomycin, in a humidified incubator maintained at 37° C. and 5% CO2.
Referring to FIGS. 9A-C, an in vitro cell viability chart of FaDu cells when treated with BrdU alone, NR alone, and BrdU and NR, is provided in accordance with an exemplary embodiment of the present disclosure. NR treatments in FIGS. 9A, 9B, and 9C are similar with the experiment procedures for FIG. 6. In samples where FaDu cells are treated with BrdU and NR, FaDu cells are incubated with BrdU for 24 hours before irradiated with NR. Referring to FIG. 9B, a colony forming assay result of FaDu cells after the treatments described in […], is provided in accordance with an exemplary embodiment of the present disclosure. The colony forming assay in FIG. 9B are proceeded as following: FaDu cells treated by different regimens are grouped and seeded in 6-well-plates with 1000 cells in each of the well and cultured for 14 days; the culture medium was replaced every 3 to 4 days; in the end of the experiment, the cells are washed twice with PBS and fixed with 4% paraformaldehyde for 15 minutes and stained with 0.1% crystal violet. Referring to FIG. 9C, a quantitative result of the colony forming assay in FIG. 9B is provided in accordance with an exemplary embodiment of the present disclosure. In FIG. 9C, the results of the colony forming assay are quantified by microscopic examination by stereomicroscope.

FaDu cells [2] = assay: in vitro cell viability of FaDu cells; type: cell-based, human; settings: for cytotoxicity: viability and colony forming

## dibromocurcumin [DBC]
FaDu cells [1]; DBC combined with 1 Gy of 14 keV NR
  colony forming assay versus DBC or NR alone: same result
FaDu cells [1]; FaDu cells, 40 μM DBC
  colony forming inhibition: about 50%
FaDu cells [2]; 20 μM of DBC combined with 1 Gy of NR
  cytotoxicity to FaDu cells: significantly higher than using DBC or NR alone
FaDu cells [2]; DBC and NR, FaDu cells
  cytotoxicity of the combination with NR: synergistic cytotoxicity
FaDu cells [2]; DBC dosage less than 20 μM
  cytotoxicity: little cytotoxicity
FaDu cells [2]; DBC dosage more than 120 μM
  cytotoxicity: efficiently kills FaDu cells
FaDu cells [2]; FaDu cells, 80 μM DBC for 24 hours, Day 7
  cell viability: less than 50%
